Measurements: patent US11311624B2, “Inhibitors of MEK/PI3K, JAK/MEK, JAK/PI3K/mTOR and MEK/PI3K/mTOR biological pathways and methods for improving lymphatic uptake, bioavailability, and solubility of therapeutic compounds” (THE REGENTS OF THE UNIVERSITY OF MICHIGAN, priority 2017, dated 2022)
Where two headings read alike, the source gives them in different places. Values belong to the compound of their own block, whether it stands above or below them.

Columns and labels:
Class 1 PI3K isoforms = conditions: read-out: selectivity towards the Class 1 PI3K isoforms; cited from earlier work
PI3Kβ = PI3Kβ (Homo sapiens, UniProt P42338); assay: In vitro inhibition of PI3Kβ; format: biochemical
PI3Kβ, sequence (P42338 whole entry, species assumed): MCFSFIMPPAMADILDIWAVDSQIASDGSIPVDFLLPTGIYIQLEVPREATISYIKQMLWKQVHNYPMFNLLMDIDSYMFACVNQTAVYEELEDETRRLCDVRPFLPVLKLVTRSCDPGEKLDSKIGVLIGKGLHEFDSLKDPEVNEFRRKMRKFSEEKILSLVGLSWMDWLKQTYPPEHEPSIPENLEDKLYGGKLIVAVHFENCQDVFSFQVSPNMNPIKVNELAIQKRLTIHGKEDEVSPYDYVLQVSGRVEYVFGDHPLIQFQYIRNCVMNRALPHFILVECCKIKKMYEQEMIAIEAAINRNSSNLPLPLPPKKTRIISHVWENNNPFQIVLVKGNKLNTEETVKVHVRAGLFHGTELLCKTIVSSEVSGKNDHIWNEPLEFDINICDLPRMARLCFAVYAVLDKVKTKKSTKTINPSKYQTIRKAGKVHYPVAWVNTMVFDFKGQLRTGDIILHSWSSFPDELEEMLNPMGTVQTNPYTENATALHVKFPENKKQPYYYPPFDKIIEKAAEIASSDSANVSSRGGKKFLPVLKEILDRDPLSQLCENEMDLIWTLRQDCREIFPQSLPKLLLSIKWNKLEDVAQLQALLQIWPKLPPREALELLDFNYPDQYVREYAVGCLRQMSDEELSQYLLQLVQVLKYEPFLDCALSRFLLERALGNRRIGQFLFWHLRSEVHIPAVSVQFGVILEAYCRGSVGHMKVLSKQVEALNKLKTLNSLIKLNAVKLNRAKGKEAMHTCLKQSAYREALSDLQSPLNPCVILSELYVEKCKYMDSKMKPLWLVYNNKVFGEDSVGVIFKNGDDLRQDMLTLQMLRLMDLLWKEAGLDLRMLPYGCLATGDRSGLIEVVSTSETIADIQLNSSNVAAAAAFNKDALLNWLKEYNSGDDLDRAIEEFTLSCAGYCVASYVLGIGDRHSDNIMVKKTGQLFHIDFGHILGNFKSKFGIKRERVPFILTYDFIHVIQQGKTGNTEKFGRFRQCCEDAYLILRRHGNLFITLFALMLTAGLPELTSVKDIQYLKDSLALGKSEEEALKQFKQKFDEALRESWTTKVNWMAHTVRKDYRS
PI3Kβ, sequence (P27986 whole entry partner, species assumed): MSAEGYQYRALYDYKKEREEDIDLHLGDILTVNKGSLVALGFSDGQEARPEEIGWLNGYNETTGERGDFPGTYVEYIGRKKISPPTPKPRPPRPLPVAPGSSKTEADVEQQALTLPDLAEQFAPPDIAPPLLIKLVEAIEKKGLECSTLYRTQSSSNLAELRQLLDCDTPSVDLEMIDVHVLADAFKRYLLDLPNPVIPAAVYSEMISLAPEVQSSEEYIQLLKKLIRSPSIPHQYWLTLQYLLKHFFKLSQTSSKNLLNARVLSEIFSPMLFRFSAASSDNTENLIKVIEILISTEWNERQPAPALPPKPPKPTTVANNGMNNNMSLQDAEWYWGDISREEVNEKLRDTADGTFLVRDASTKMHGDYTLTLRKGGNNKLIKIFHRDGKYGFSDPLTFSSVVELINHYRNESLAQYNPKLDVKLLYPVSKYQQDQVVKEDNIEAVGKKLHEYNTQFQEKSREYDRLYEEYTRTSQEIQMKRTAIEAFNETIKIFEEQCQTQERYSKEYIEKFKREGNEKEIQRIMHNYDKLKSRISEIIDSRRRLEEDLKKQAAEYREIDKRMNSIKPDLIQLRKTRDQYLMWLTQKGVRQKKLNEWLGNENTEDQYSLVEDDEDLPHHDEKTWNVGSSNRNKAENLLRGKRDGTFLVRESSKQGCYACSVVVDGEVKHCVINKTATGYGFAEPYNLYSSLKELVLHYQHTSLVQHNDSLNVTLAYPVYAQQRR

PI3Kα = PI3Kα (Homo sapiens, UniProt P42336); assay: In vitro inhibition of PI3Kα; format: biochemical
PI3Kα, sequence (P42336 whole entry, species assumed): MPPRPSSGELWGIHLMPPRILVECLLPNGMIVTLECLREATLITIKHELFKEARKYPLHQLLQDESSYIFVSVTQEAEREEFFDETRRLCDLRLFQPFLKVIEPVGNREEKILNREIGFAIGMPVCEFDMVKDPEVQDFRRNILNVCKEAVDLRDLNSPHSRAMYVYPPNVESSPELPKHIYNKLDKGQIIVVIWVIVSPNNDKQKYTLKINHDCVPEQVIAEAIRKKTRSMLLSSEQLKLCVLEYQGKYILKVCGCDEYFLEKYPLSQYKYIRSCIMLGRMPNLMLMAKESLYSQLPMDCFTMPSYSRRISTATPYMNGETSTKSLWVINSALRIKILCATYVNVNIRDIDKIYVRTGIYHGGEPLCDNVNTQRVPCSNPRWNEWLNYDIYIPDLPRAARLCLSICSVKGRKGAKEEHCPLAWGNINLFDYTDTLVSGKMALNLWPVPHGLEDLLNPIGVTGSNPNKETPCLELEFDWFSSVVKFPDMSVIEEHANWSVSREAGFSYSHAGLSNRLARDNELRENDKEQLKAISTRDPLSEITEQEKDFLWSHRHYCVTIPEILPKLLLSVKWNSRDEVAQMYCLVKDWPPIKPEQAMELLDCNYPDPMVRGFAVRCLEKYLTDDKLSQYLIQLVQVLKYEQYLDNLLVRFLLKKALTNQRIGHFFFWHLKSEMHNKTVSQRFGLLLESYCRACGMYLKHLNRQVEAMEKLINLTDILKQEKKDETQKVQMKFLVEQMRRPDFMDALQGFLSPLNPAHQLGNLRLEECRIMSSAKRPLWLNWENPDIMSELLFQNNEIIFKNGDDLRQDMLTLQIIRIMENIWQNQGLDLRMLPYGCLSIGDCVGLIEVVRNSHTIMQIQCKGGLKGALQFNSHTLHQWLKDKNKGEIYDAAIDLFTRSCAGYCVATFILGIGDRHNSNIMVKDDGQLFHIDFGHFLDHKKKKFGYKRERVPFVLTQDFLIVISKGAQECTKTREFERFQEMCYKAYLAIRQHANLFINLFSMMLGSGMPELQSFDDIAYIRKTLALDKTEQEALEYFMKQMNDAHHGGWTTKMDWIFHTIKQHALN
PI3Kα, sequence (P27986 whole entry partner, species assumed): as the sequence (P27986 whole entry partner, species assumed) above

PI3Kγ = PI3Kγ (Homo sapiens, UniProt P48736); assay: In vitro inhibition of PI3Kγ; format: biochemical
PI3Kγ, sequence (P48736 whole entry, species assumed): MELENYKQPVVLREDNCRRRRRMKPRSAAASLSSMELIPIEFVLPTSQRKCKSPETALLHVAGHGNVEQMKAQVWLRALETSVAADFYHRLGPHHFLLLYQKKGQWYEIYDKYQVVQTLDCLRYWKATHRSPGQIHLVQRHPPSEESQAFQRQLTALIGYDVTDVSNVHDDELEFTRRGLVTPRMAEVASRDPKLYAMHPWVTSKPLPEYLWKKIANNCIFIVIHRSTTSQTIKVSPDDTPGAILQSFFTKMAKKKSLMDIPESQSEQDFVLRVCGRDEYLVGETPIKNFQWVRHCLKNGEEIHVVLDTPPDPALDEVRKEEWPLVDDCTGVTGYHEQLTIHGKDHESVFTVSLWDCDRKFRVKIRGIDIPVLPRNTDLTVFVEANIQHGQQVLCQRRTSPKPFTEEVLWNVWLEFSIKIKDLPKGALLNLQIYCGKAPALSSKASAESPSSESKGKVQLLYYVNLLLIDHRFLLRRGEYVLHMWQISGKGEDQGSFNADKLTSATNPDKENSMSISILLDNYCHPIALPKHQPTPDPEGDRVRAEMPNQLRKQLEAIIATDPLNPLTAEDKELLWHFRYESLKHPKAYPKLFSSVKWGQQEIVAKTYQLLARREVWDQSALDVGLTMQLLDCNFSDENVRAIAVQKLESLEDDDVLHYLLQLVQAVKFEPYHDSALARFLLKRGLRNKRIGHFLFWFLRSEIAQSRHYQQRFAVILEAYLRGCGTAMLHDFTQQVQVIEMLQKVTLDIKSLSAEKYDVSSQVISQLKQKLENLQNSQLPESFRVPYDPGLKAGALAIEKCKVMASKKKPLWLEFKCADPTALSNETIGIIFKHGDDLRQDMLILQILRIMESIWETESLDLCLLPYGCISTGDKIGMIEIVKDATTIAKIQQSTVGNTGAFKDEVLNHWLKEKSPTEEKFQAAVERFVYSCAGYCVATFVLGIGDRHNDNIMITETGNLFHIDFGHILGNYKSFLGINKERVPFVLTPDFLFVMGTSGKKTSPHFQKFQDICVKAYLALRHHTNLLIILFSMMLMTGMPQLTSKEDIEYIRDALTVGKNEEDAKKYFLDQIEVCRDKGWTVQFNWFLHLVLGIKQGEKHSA

MEK1 = MEK1 (Homo sapiens, UniProt Q02750); assay: In vitro inhibition of MEK1; format: biochemical
PI3Kδ = PI3Kδ (Homo sapiens, UniProt O00329); assay: In vitro inhibition of PI3Kδ; format: biochemical
PI3Kδ, sequence (O00329 whole entry, species assumed): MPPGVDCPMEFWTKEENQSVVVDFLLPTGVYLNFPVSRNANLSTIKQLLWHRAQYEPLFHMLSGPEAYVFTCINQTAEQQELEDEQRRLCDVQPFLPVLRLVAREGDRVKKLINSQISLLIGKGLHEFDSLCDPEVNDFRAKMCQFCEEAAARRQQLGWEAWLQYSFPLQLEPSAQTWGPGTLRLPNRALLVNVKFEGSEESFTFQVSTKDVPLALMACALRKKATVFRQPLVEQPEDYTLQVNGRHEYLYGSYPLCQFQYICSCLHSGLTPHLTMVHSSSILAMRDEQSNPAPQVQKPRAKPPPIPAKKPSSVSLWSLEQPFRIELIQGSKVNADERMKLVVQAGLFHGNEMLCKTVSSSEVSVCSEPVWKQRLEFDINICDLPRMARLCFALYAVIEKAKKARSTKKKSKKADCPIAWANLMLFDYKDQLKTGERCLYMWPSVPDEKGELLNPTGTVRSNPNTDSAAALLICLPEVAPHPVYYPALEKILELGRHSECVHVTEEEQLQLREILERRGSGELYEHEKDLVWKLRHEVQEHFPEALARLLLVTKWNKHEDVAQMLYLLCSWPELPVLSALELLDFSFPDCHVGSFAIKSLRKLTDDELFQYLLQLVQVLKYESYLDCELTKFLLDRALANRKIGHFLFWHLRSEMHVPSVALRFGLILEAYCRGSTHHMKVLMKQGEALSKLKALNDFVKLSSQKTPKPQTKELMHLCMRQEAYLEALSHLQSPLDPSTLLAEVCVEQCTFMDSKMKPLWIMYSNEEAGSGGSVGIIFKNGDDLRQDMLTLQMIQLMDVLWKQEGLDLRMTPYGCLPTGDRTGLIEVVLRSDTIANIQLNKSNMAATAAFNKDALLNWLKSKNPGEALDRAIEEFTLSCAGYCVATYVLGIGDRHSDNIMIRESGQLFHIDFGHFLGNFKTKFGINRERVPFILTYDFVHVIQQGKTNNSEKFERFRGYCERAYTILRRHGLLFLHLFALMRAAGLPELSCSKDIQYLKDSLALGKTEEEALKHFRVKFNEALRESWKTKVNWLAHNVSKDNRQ
PI3Kδ, sequence (P27986 whole entry partner, species assumed): as the sequence (P27986 whole entry partner, species assumed) above

mTOR = mTOR (Homo sapiens, UniProt P42345); assay: In vitro inhibition of mTOR; format: biochemical; conditions: Table 10B, inhibitory activity, unit inferred
[1] = Plasma and lymphatic tissue levels after single oral dose of ST-168 or PD901, LC-MS/MS (FIG. 3); format: in vivo; conditions: mouse; for Kp at 4 h: lymphatic tissue / plasma, single oral dose in ORA-Plus suspension, 4 hours post-administration, read-out: lymphatic/plasma ratio
Protocol: LC-MS/MS quantification of drug concentrations in mouse tissues over time following a single oral dose is shown. FIG. 3 contains block diagrams for formulations in ORA-Plus liquid particulate suspension: FIG. 3A compound ST-168 levels at 4 hours in plasma and lymphatic tissue versus the MEK inhibitor PD0325901 (henceforth referred to as PD901). FIG. 3B ST-168 time dependence in plasma and lymphatic tissue, and formulated in Maisine, FIG. 3C ST-168 time dependence in plasma and lymphatic tissue following 100 mg/kg dose.
In FIG. 3, LC-MS/MS quantification of drug concentrations in mouse tissues over time are shown following a single oral suspension dose of ST-168 delivered in ORA-Plus®. ORA-Plus is an aqueous-based vehicle (ORA-Plus Product Data Sheet available at Perrigo Company's website) containing a synergistic blend of suspending agents having a high degree of colloidal activity. The suspending agents form a structured, gel-like matrix which suspends particles and allow for little settling. ORA-Plus is buffered to a slightly acidic pH to help reduce degradation of medicinal agents through oxidation. The ORA-Plus contains purified water, microcrystalline cellulose, carboxymethylcellulose sodium, xanthan gum, carrageenan, calcium sulfate, trisodium phosphate, citric acid and sodium phosphate as buffers and dimethicone antifoam emulsion, preserved with methylparaben and potassium sorbate. […] Any compound delivered in ORA-Plus is distributed to the plasma and lymphatic system based upon the physiochemical properties of the drug. Thus, the formulation itself only serves to provide for a suspension of drug particulates and dissolution of drug will be based upon water solubility.
This is an important distinction showing that Compound ST-168 has lymphatic absorptive properties because ORA-Plus is not a long chain fatty acid like Maisine. […] Data presented in FIGS. 3A through 3D reveal that the mEG linker technology for chemical coupling with drugs produces solubility properties consistent with formulation and bioavailability required for drug-like pharmaceutical characteristics and improved lymphatic absorption.

[2] = test system: TGFα-transgenic mouse model of idiopathic pulmonary fibrosis (IPF); assay: Dox-inducible TGFα-transgenic mouse model of idiopathic pulmonary fibrosis; format: in vivo, mice; conditions: 400 mg/kg PO, 3 week follow up CT scan
Protocol: Treatment of inflammatory-mediated fibrotic diseases were also evaluated using a doxycycline (Dox)-inducible transforming growth factor-α (TGFα)-transgenic mouse model of idiopathic pulmonary fibrosis (IPF) expressing lung-epithelial specific TGFα following Dox administration. […] Weekly lung micro-CT exams were used for assessment of fibrotic burden. Nintenadib (n=5) (100 mg/kg) was also evaluated for comparison. Lung tissue was examined microscopy in a subset of animals at the conclusion of the study.

pERK1/2 and pAKT = assay: Immunoblot of treated A375 melanoma cells (FIG. 5A); format: cell-based, human; conditions: 1 h, 20 μM
Protocol: (§1) ADME (absorption, distribution, metabolism, and excretion) studies of ST-168 have shown that ST-168 is bioavailable following administration in mice.
In FIG. 5A, a two-dimensional assessment of ST-162 and ST-168. […] In FIG. 5B, assessment of dead cells in 3D melanoma spheroids post-treatment with ST-162 and ST-168. A375 melanoma spheroids were treated for 72 h with 20 μM each of ST-162 or ST-168 before staining with Calcein AM and ethidium homodimer-1 for fluorescent microscopy (live/dead viability assay, Molecular Probes). Green fluorescence indicates live cells, and red fluorescence indicates dead cells. Images were obtained with an Olympus IX70 fluorescent microscope using the SPOT advance program. In FIG. 5C tumor growth inhibition by ST-162 and ST-168 in a melanoma xenograft model. Tumor implantation consisted of inoculation of 5×10^6 A375 cells suspended in 100 μL of media into the flank of nude mice. Treatment was initiated once tumors reached >100 mm^3. […] Changes in tumor growth of A375 xenografts were assessed by conducting MRI imaging twice per week. Tumor volume changes between ST-162 and ST-168 treatment were determined to be statistically significant (p<0.05) using an unpaired Student's t test at the last time point. […]

[3] = Tolerance in colorectal, glioma and melanoma mouse xenograft models; format: in vivo; conditions: 400 mg/kg orally, suspended in ORA-Plus, glioma, melanoma xenograft models
Excerpt: as §1

A375 xenografts = assay: Tumor growth inhibition in melanoma xenograft model (FIG. 5C); format: in vivo, nude mice
Protocol: as §1
In FIG. 5A, a two-dimensional assessment of ST-162 and ST-168. […] In FIG. 5B, assessment of dead cells in 3D melanoma spheroids post-treatment with ST-162 and ST-168. A375 melanoma spheroids were treated for 72 h with 20 μM each of ST-162 or ST-168 before staining with Calcein AM and ethidium homodimer-1 for fluorescent microscopy (live/dead viability assay, Molecular Probes). Green fluorescence indicates live cells, and red fluorescence indicates dead cells. Images were obtained with an Olympus IX70 fluorescent microscope using the SPOT advance program. In FIG. 5C tumor growth inhibition by ST-162 and ST-168 in a melanoma xenograft model. Tumor implantation consisted of inoculation of 5×10^6 A375 cells suspended in 100 μL of media into the flank of nude mice. Treatment was initiated once tumors reached >100 mm^3. Mice were randomized into two treatment groups and treated once daily with either vehicle (200 μL of OraPlus) or 400 mg/kg each of ST-162 or ST-168 by oral gavage until sacrifice (42 days). Changes in tumor growth of A375 xenografts were assessed by conducting MRI imaging twice per week. Tumor volume changes between ST-162 and ST-168 treatment were determined to be statistically significant (p<0.05) using an unpaired Student's t test at the last time point. Experimental design: n=4-6 tumors/treatment group.

[4] = ADME studies of ST-168 in mice; format: in vivo
Excerpt: as §1

[5] = Tissue concentration partitioning (plasma, mesenteric lymph node, fat) after single oral dose in Maisine, LC-MS/MS; format: in vivo; conditions: mice, single oral 10 mg in Maisine; for Kp at 4 h: 4 hour time point; for concentration at 4 h: 4 hours post-dosing
Excerpt: Inhibitor compounds were synthesized to discover the underlying parameters needed in the development of chemical modifiers compatible with attachment to drug molecules to provide a drug having the physiochemical characteristics needed for uptake into the lymphatic system. […] This excipient vehicle contains long chain fatty acids and is used for hydrophobic compound solubilization.
Results were quantified using LC-MS/MS for plasma, mesenteric lymph node (LN) and mesenteric fat tissues.

[6] = Table 14, read-out: IC50 (nM) PI3Kβ
[7] = Table 14, read-out: IC50 (nM) PI3Kα
[8] = Table 14, read-out: IC50 (nM) PI3Kγ
[9] = Table 14, read-out: IC50 (nM) PI3Kδ
[10] = Table 10B, inhibitory activity, unit inferred, read-out: PI3Kβ
[11] = Table 10B, inhibitory activity, unit inferred, read-out: PI3Kα
[12] = Table 10B, inhibitory activity, unit inferred, read-out: PI3Kγ
[13] = mouse, mesenteric lymph node / plasma, read-out: lymph/plasma ratio

SMILES: COc1ccc(-c2ccc3c(N4CCOC[C@H]4C)nc(N4CCOC[C@H]4C)nc3n2)cc1CO [AZD 8055]
- IC50 (Class 1 PI3K isoforms): > 1000 nM

SMILES: O=C(NOC[C@H](O)CO)c1ccc(F)c(F)c1Nc1ccc(I)cc1F [Compound 901, reference compound]
- Kp at 4 h [1]: ~1.2

SMILES: O=C(NOCCOCCOCCOCCC(=O)N1CCN(c2nc(N3CCOCC3)nc(-n3c(C(F)F)nc4ccccc43)n2)CC1)c1ccc(F)c(F)c1Nc1ccc(I)cc1F [ST-168]
- IC50 (PI3Kβ; [10]): 1480 ± 377 nM
- IC50 (PI3Kα; [11]): 69.2 ± 2.2 nM
- reversal of lung fibroproliferative disease and pleural thickness (CT) [2]: strong activity for reversal
- IC50 (PI3Kγ; [12]): 2290 ± 241 nM
- down regulation of pERK1/2 and pAKT in cells (pERK1/2 and pAKT): down regulate
- Kp at 4 h [1]: ~120
- partitioning between lymphatic/plasma over time ([1]; single oral dose of 400 mg/kg in ORA-Plus): maintained over a 24 hour time period
- lymphatic uptake (tissue concentration levels) ([1]; single oral doses of 100 mg/kg and 400 mg/kg in Maisine, 2, 4, and 24 hour): extraordinarily high lymphatic uptake
- tolerance / observed toxicities [3]: no observed toxicities
- in vivo activity for suppression of MEK1/PI3K kinase activities in solid tumors, compared to ST-162 (A375 xenografts; 400 mg/kg oral gavage once daily, A375 xenografts): superior in vivo activity
- tumor growth (A375 xenografts; 400 mg/kg oral once daily, initial 30 days): tumor stasis
- bioavailability following administration [4]: bioavailable

SMILES: O=C(NCCOCCOCCOCCNC(=O)c1cccc2ccccc12)c1cccc2ccccc12 [Compound 3]
- Kp at 4 h [5, 13]: ~5

SMILES: O=C(NCCOCCOCCOCCNC(=O)c1ccccc1)c1ccccc1 [Compound 1]
- Kp at 0.5 h ([5]; mouse, mesenteric lymph node / plasma, 0.5 hours, read-out: lymph/plasma ratio): ~0.6
- Kp at 4 h [5, 13]: ~1
- concentration at 4 h ([5]; mouse, mesenteric lymph node, read-out: lymphatic concentration): ~85 ng/mL
- concentration at 4 h ([5]; mouse, plasma, read-out: plasma concentration): ~95 ng/mL

SMILES: O=C(NCCCCCCCCCCCNC(=O)c1ccccc1)c1ccccc1 [Compound 2]
- concentrations in tissues tested, compared to Compound 1 ([5]; plasma, mesenteric lymph node, fat): much lower concentrations in all tissues tested
- Kp ([5]; mouse, mesenteric lymph node / plasma, between time points 0.5, 2, and 4 hours, read-out: lymph/plasma ratios): 3 to 5

Other lines, results leading:

- IC50 (PI3Kβ; [6]): 1540 ± 188 nM
- IC50 (PI3Kα; [7]): 130 ± 13 nM
- IC50 (PI3Kγ; [8]): 2740 ± 485 nM
- IC50 (MEK1): 124 ± 11 nM
- IC50 (PI3Kδ; [9]): 236 ± 29 nM
SMILES: O=C(NOCCOCCOCCOCCNc1nc(N2CCOCC2)nc(-n2c(C(F)F)nc3ccccc32)n1)c1ccc(F)c(F)c1Nc1ccc(F)cc1F [ST-6-02]

- IC50 (PI3Kβ; [10]): 1620 ± 442 nM
- IC50 (PI3Kα; [11]): 42.3 ± 4 nM
- IC50 (PI3Kγ; [12]): 325 ± 78 nM
- IC50 (mTOR): 50.4 ± 4.2 nM
- IC50 (PI3Kδ; Table 10B, inhibitory activity, unit inferred, read-out: PI3Kδ): 55.3 ± 3.9 nM
SMILES: CN(C)C1CCN(C(=O)c2ccc(NC(=O)Nc3ccc(-c4nc(N5CCOCC5)nc(N5CCN(C(=O)CCOCCOCCOCCONC(=O)c6ccc(F)c(F)c6Nc6ccc(I)cc6F)CC5)n4)cc3)cc2)CC1 [ST-185]

- IC50 (PI3Kβ; [6]): 1080 ± 143 nM
- IC50 (PI3Kα; [7]): 10.9 ± 0.7 nM
- IC50 (PI3Kγ; [8]): 137 ± 21 nM
- IC50 (PI3Kδ; [9]): 8.6 ± 1.2 nM
SMILES: NOCCOCCOCCOCCN(CCO)c1nc(N2CCOCC2)nc(-n2c(C(F)F)nc3ccccc32)n1 [ST-5-46]

- IC50 (PI3Kβ; [6]): 74 ± 5.7 nM
- IC50 (PI3Kα; [7]): 3.74 ± 1 nM
- IC50 (PI3Kγ; [8]): 14.6 ± 1.4 nM
- IC50 (PI3Kδ; [9]): 9.9 ± 0.4 nM
SMILES: OCCN(CCO)c1nc(N2CCOCC2)nc(-n2c(C(F)F)nc3ccccc32)n1 [ST-5-32]
